The values that follow come from patent US20260325504A1, “Genetically Engineered Human Pituitary Corticotroph Tumor Organoids Exhibit Divergent Responses to Selective Glucocorticoid Receptor Modulators” (Corcept Therapeutics Incorporated, priority 2022, published 2026).

Structures are written as SMILES. “Also recorded” adds a separate entry of the source.

Experiment [1] has as its system ACTH. Kind of experiment: Spectral flow cytometry, ACTH positive cells, iPSCUSP48MV organoids. Format: cell-based, human. Particulars: 48 h, FIGS. 8C, G. On the procedure:
(§1) Sonic Hedgehog (SHH) was withdrawn from the organoid growth media 16 hours prior to treatment. The experimental treatment groups included: vehicle (Veh), mifepristone (500 nM, Selleckchem S2606), GANT61 (5 μM, Stemcell Technologies 73692), ketoconazole (Keto, 10 μM, Selleckchem S1353), pasireotide (Pas, 100 nM, Target Mol TP2207-SB001), octreotide (Oct, 100 nM, Selleckchem P1017), mifepristone plus GANT61, mifepristone plus Keto, mifepristone plus Pas, relacorilant (500 nM, Corcept Therapeutics CORT125134), relacorilant plus Pas, relacorilant plus Oct, or dexamethasone (Dexa, 100 nM, SIGMA S4902). In the combination treatments, cultures were pretreated with the GANT61, Keto, Pas or Oct for 2 hours prior to treatment with mifepristone or Rela. PitNET tissue derived organoids hPITO36, hPITO37, hPITO38, hPITO39, and hPITO40 were treated with the following experimental conditions: Vehicle (1), pasireotide (2), relacorilant (3), relacorilant & pasireotide (4), mifepristone (5), mifepristone & pasireotide (6). The IC50 values used for each hPITO line for each drug were determined based on dose responses (FIG. 12). All organoid cultures were treated for 48 hours prior to analysis.
The multicolor flow cytometry antibody panel was designed using the Cytek® Full Spectrum Viewer online tool to calculate the similarity index. Organoids were harvested in cold Serum-Free Defined Medium media and incubated with Zombie (BioLegend 423107, 1:100) for 15 minutes in the dark at room temperature, followed by incubation with fluorochrome-conjugated/unconjugated primary surface or cytoplasmic antibodies (Table 6) at 4° C. for 30 minutes. Cells were then washed with Cell Staining Buffer (BioLegend 420-201) and incubated at 4° C. for 30 minutes with secondary antibodies (Table 6). Cells were fixed using Cytofix/Cytoperm™ Fixation/Permeabilization Solution (BD Biosciences 554714) and washed with Fixation/Permeabilization wash buffer according to the recommended protocol. […] Data was acquired using the Cytek® Aurora, analyzed using Cytobank Premium software (Beckman Coulter).

Experiment [2] concerns iPSC^USP48MV organoids. Description: Spectral flow cytometry, Zombie positive cells (cell death), iPSCUSP48MV organoids. Type of experiment: cell-based, human. Particulars: 48 h, FIGS. 8D. On the procedure:
as §1, with “All organoid cultures were treated for 48 hours prior to analysis.” left out
The multicolor flow cytometry antibody panel was designed using the Cytek® Full Spectrum Viewer online tool to calculate the similarity index. […] Data was acquired using the Cytek® Aurora, analyzed using Cytobank Premium software (Beckman Coulter).
(In general: A flow cytometer gives signals particle by particle.)

In experiment [3] the test system is hPITO. Kind of experiment: Spectral flow cytometry, Zombie positive cells (cell death), hPITOs. Format: cell-based, human. The note with it: 48 h, FIGS. 9K, L.
Excerpt: 1.3 Generation and Culture of Human PitNET Tissue Organoids (hPITOs)
Patients undergoing planned transsphenoidal surgery for PitNETs were identified in the outpatient neuroendocrinology and neurosurgery clinics and collected by the St. Joseph's Hospital and Barrow Neurological Institute Biobank under the collection protocol PHXA-05TS038, and outcomes data protocol PHXA-0004-72-29 with approval of the Institutional Review Board (IRB) and patient consent. De-identified samples were shipped in collection and transport media (Table 3) to the Zavros laboratory (University of Arizona) for processing within 24 hours of collection. Resected PitNET tissues were washed with Dulbeccos Phosphate Buffered Saline (DPBS) supplemented with 1× Penicillin/Streptomycin, 1× Kanamycin and 1× Amphotericin/Gentamycin, minced into smaller pieces, and incubated with digestion buffer (Dulbecco's Modified Eagle Medium/Nutrient Mixture F-12 (DMEM/F12) supplemented with 0.4% Collagenase 2, 0.1% Hyaluronic Acid, 0.03% Trypsin). The tissue was incubated with Accutase (Thermo Fisher Scientific) for a further 5 minutes, and the cells were pelleted and washed with DPBS supplemented with antibiotics. Dissociated cells were then seeded as Matrigel™ domes in culture dishes and overlaid with growth media (Table 4). Media was replaced every 3 days and organoids were harvested for downstream experiments or passaged after 15 days of culture (FIG. 1B).
as §1
The multicolor flow cytometry antibody panel was designed using the Cytek® Full Spectrum Viewer online tool to calculate the similarity index. Organoids were harvested in cold Serum-Free Defined Medium media and incubated with Zombie (BioLegend 423107, 1:100) for 15 minutes in the dark at room temperature, followed by incubation with fluorochrome-conjugated/unconjugated primary surface or cytoplasmic antibodies (Table 6) at 4° C. for 30 minutes. Cells were then washed with Cell Staining Buffer (BioLegend 420-201) and incubated at 4° C. for 30 minutes with secondary antibodies (Table 6). Cells were fixed using Cytofix/Cytoperm™ Fixation/Permeabilization Solution (BD Biosciences 554714) and washed with Fixation/Permeabilization wash buffer according to the recommended protocol. […]

Experiment [4] concerns progesterone receptor. Particulars: cited from earlier work.

For the molecule `CC#C[C@]1(O)CC[C@H]2[C@@H]3CCC4=CC(=O)CCC4=C3[C@@H](c3ccc(N(C)C)cc3)C[C@@]21C` [mifepristone, 11β-(4-dimethylaminophenyl)-17ß-hydroxy-17α-(1-propynyl)-estra-4,9-dien-3-one], in experiment [1], the “ACTH positive cells / ACTH expression” value is “significant induction in the number of ACTH positive cells; also recorded: significantly increased the ACTH expression levels”. The “cell death (Zombie positive cells)” value in experiment [2] and in experiment [3] was “not observed” each time. Also, the “binding to the progesterone receptor” value in experiment [4] is recorded as “binding to the progesterone receptor”.

Regarding `Cn1cc(S(=O)(=O)N2CCC3=Cc4c(cnn4-c4ccc(F)cc4)C[C@]3(C(=O)c3cc(C(F)(F)F)ccn3)C2)cn1` [relacorilant, (R)-(1-(4-fluorophenyl)-6-((1-methyl-1H-pyrazol-4-yl)sulfonyl)-4,4a,5,6,7,8-hexahydro-1H-pyrazolo[3,4-g]isoquinolin-4a-yl) (4-(trifluoromethyl)pyridin-2-yl) methanone], the “ACTH positive cells / ACTH expression” value in experiment [1] was “did not significantly increase the number of ACTH-positive cells”; in experiment [1] (listed as Relacorilant), “did not significantly increase ACTH”. In addition, the results for the “cell death (Zombie positive cells)” value in experiment [2], in experiment [3] and in experiment [3] (listed as Relacorilant) were “significant increase in Zombie positive cells”, “significant increase in cell death” and “Induces Tumor Cell Death; also recorded: significant increase in Zombie positive cells”, respectively. Also, the “cell death in epithelial/mesenchymal hybrid cell population (CK20, vimentin, CXCR4)” value in experiment [3] is “significant cell death”. Besides, the “cell death in populations expressing stem cell markers SOX2, CXCR4 and nestin” value in experiment [3] is on record as “significant cell death”. In experiment [4], the “binding to the progesterone receptor” value is “no detectable binding”.
